In patent publication US6630191B1, “Aspartyl dipeptide ester derivatives and sweeteners” (Ajinomoto Co., Inc., priority 1998, dated 2003):
Marks after values point to notes of the source that are not given here.

Legend:
[1] = Sensory evaluation of sweetening potency relative to sugar (4% sucrose aqueous solution); details: for Sweetening Potency / Sweetening Potency, compensated value as optical isomer: Relative to sweetening potency of a 4% sucrose aqueous solution; for Sweetening potency (relative to sugar): sensory evaluation; for Sweetening Potency, compensated value as optical isomer: compensated value as optical isomer (DL-homophenylalanine derivatives)
Source text: For example, the sweetening potency of N-[N-[3-(3-hydroxy-4-methoxyphenyl)propyl]-L-α-aspartyl]-L-(α-methyl)phenylalanine 1-methyl ester was approximately 18,000 times (relative to sugar), that of N-[N-[3-(3-methoxy-4-hydroxyphenyl)propyl]-L-α-aspartyl]-L-(α-methy)phenylalanine 1-methyl ester was approximately 18,000 times (relative to sugar), that of N-[N-[3-(3-hydroxy-4-methoxyphenyl)propyl]-L-α-aspartyl]-3-cyclohexyl-L-alanine 1-methyl ester was approximately 25,000 times (relative to sugar), that of N-[N-[3-(3-methoxy-4-hydroxyphenyl)propyl]-L-α-aspartyl]-3-cyclohexyl-L-alanine 1-methyl ester was approximately 25,000 times (relative to sugar), that of N-[N-[3-(3-methyl-4-hydroxyphenyl)propyl]-L-(α-aspartyl]-3-cyclohexyl-L-alanine 1-methyl ester was approximately 40,000 times (relative to sugar).
With respect to the aspartyl dipeptide derivatives (represented by the following general formula (5)) formed, the structures and the results of the sensory evaluation are shown in Table 1. [drawing 4]

[2] = reported in WO 94/11391; cited from earlier work

| SMILES | Sweetening Potency [1] | Sweetening potency (relative to sugar) [1] | other results |
| --- | --- | --- | --- |
| COC(=O)C(NC(=O)C(CC(=O)O)NCCCc1ccc(O)c(OC)c1)c1ccccc1 [Compound 6, N-[N-[3-(3-Methoxy-4-hydroxyphenyl)propyl]-L-α-aspartyl]-L-phenylglycin 1-Methyl Ester] | 700 | 700 times | – |
| COC(=O)C(NC(=O)C(CC(=O)O)NCCCc1ccc(OC)c(O)c1)c1ccccc1 [Compound 5, N-[N-[3-(3-Hydroxy-4-methoxyphenyl)propyl]-L-α-aspartyl]-L-phenylglycin 1-Methyl Ester] | 1600 | 1,600 times | – |
| COC(=O)[C@H](Cc1ccccc1)NC(=O)[C@H](CC(=O)O)NCCC(C)(C)C [N-[N-(3,3-dimethylbutyl)-L-α--aspartyl]-L-phenylalanine 1-methyl ester] | – | – | Sweetening potency, times that of sugar [2]: 10,000 times |
| COC(=O)[C@H](Cc1ccccc1)NC(=O)[C@H](CC(=O)O)NCCCc1ccc(O)c(OC)c1 [N-[N-[3-(3-methoxy-4-hydroxyphenyl)propyl]-L-α-aspartyl]-L-phenylalanine 1-methyl ester] | – | – | Sweetening potency, times that of sugar [2]: 2,500 times |
| Cc1ccc(CCCN[C@@H](CC(=O)O)C(=O)N[C@@H](CC2CCCCC2)C(=O)O)c(O)c1 [Compound 13] | 25000 | 25,000 times | – |
| CCCOC(=O)[C@@H](C)NC(=O)[C@H](CC(=O)O)NCCCc1ccc(OC)c(O)c1 [Compound 9, N-[N-[3-(3-Hydroxy-4-methoxyphenyl)propyl]-L-α-aspartyl]-D-alanine 1-n-Propyl Ester] | 800 | 800 times | – |
| COC(=O)C(CCc1ccccc1)NC(=O)[C@H](CC(=O)O)NCCCc1ccc(OC)c(O)c1 (mixture of isomers) [Compound 7, N-[N-[3-(3-Hydroxy-4-methoxyphenyl)propyl]-L-α-aspartyl]-DL-homophenylalanine 1-Methyl Ester] | – | 1,000 times | Sweetening Potency, compensated value as optical isomer [1]: 2000^2) |
| COC(=O)C(Cc1ccc(O)cc1)NC(=O)C(CC(=O)O)NCCC(C)(C)C [N-[N-(3,3-dimethylbutyl)-L-α-aspartyll-L-tyrosine 1-methyl ester] | – | – | Sweetening potency, times that of sugar [2]: 4,000 times |
| COC(=O)[C@H](Cc1ccccc1)NC(=O)[C@H](CC(=O)O)NCCCc1ccccc1 [N-[N-(3-phenylpropyl)-L-α-aspartyl]-L-phenylalanine 1-methyl ester] | – | – | Sweetening potency, times that of sugar [2]: 1,500 times |
| COC(=O)[C@H](CC1CCCCC1)NC(=O)[C@H](CC(=O)O)NCCCc1ccc(OC)c(O)c1 [Compound 3, N-[N-[3-(3-Hydroxy-4-methoxyphenyl)propyl]-L-α-aspartyl]-3-cyclohexyl-L-alanine 1-Methyl Ester] | 25000 | 25,000 times | Sweetening potency (relative to sugar) ([1]; listed as N-[N-[3-(3-hydroxy-4-methoxyphenyl)propyl]-L-α-aspartyl]-3-cyclohexyl-L-alanine): approximately 25,000 times |
| COC(=O)[C@](C)(Cc1ccccc1)NC(=O)[C@H](CC(=O)O)NCCCc1ccc(O)c(OC)c1 [Compound 2, N-(N-(3-(3-Methoxy-4-hydroxyphenyl)propyl]-L-α-aspartyl]-L-(α-methyl)phenylalanine 1-Methyl Ester] | 18000 | 18,000 times | Sweetening potency (relative to sugar) ([1]; listed as N-[N-[3-(3-methoxy-4-hydroxyphenyl)propyl]-L-α-aspartyl]-L-(α-methy)phenylalanin): approximately 18,000 times |
| COC(=O)[C@](C)(Cc1ccccc1)NC(=O)[C@H](CC(=O)O)NCCCc1ccc(OC)c(O)c1 [Compound 1, N-[N-[3-(3-Hydroxy-4-methoxyphenyl)propyl]-L-α-aspartyl]-L-(α-methyl)phenylalanine 1-Methyl Ester] | 18000 | 18,000 times | Sweetening potency (relative to sugar) ([1]; listed as N-[N-[3-(3-hydroxy-4-methoxyphenyl)propyl]-L-α-aspartyl]-L-(α-methyl)phenylalani): approximately 18,000 times |
| CCCOC(=O)[C@@H](C)NC(=O)[C@H](CC(=O)O)NCCCc1ccc(O)c(OC)c1 [Compound 10, N-[-[3-(3-Methoxy-4-hydroxyphenyl)propyl]-α-aspartyl]-D-alanine 1-n-Propyl Ester] | 600 | 600 times | – |
| COC(=O)C(C)(Cc1ccccc1)NC(=O)C(CC(=O)O)NCCCc1ccc(OC)cc1O [Compound 11, N-[N-[3-(2-Hydroxy-4-methoxyphenyl)propyl]-L-α-aspartyl]-L-(α-methyl) Phenylalanine 1-Methyl Ester] | 15000 | 15,000 times | – |
| COC(=O)[C@H](CC1CCCCC1)NC(=O)[C@H](CC(=O)O)NCCCc1ccc(O)c(C)c1 [Compound 12, N-[N-(3-(3-Methyl-4-hydroxyphenyl)propyl]-L-α-aspartyl]-3-cyclohexyl-L-anine 1-Methyl Ester] | 40000 | 40,000 times | Sweetening potency (relative to sugar) ([1]; listed as N-[N-[3-(3-methyl-4-hydroxyphenyl)propyl]-L-(α-aspartyl]-3-cyclohexyl-L-alanine): approximately 40,000 times |
| COC(=O)[C@H](CC1CCCCC1)NC(=O)[C@H](CC(=O)O)NCCCc1ccc(O)c(OC)c1 [Compound 4, N-[N-(3-(3-Methoxy-4-hydroxyphenyl)propyl]-L-α-aspartyl]-3-cyclohexyl-L-alanine 1-Methyl Ester] | 25000 | 25,000 times | Sweetening potency (relative to sugar) ([1]; listed as N-[N-[3-(3-methoxy-4-hydroxyphenyl)propyl]-L-α-aspartyl]-3-cyclohexyl-L-alanine): approximately 25,000 times |
| COC(=O)C(CCc1ccccc1)NC(=O)[C@H](CC(=O)O)NCCCc1ccc(O)c(OC)c1 (mixture of isomers) [Compound 8, N-[N-[3-(3-Methoxy-4-hydroxyphenyl)propyl]-L-α-aspartyl]-DL-homophenylalanine 1-Methyl Ester] | – | 1,200 times | Sweetening Potency, compensated value as optical isomer [1]: 2400^2) |
